US20110312890A1, “ACETYLATED AMINO ACIDS AS ANTI-PLATELET AGENTS, NUTRITIONAL AND VITAMIN SUPPLEMENTS” (SIGNATURE R&D HOLDINGS, LLC, priority 2005, published 2011)
Where “and” joins values, the source holds several entries; their conditions need not be identical. Equal entries are not always repeated. Non-standard residues stand in square brackets, D forms with d. Residues, ends and D or L forms follow the SMILES beside them. ξ: configuration not given here. ξY = NC(Cc1ccc(O)cc1)C(=O)O; ξS = NC(CO)C(=O)O

Experiments:
[1] = Hygroscopicity and handling stability of salts and zwitterions; assay type: physicochemical
Method: Salts of compound O-Acetyl-(L)-Serine-O—(O-Acetyl)-L-Serine with various acids, including HCl, MeSO3H and tartaric acid, were prepared. […] The salt with tartaric acid was unstable and produced the zwitterion son attempted recrystallization from water/acetonitrile. The zwitterions of all three compounds were the most convenient forms (non-hygroscopic) for preparation. If needed, salts are prepared in situ during the formulation process.
(§1) A sample of the compound of Ex 3 was tested in D2O with 1 drop of DCl added for a better solubility of the material. […] Stability of the compound of Ex 3 in an aqueous solution as a salt of tartaric acid is much greater. A 400-mg sample of the salt was attempted to recrystallize from 6 ml of boiling acetonitrile and 20 drops of water. The material crystallized as a zwitterion (not a tartrate) with minor traces of the decomposition. However, the recovery was 132 mg only.
(§2) c. The material of Ex 3 as a zwitterion was recrystallized from aqueous 40% EtOH while heating at 70 C for approximately 20 minutes. […] In a solution of 8% acetonitrile/92% aqueous 0.05 mol buffer of KH2PO4 (pH 5). […] Temperature of the analyses greatly affected the outcome of the analyses.

[2] = Stability followed by HPLC purity (time in solution, temperature of analysis); assay type: physicochemical; details: for HPLC purity, same sample analyzed at 10 C: temperature of analysis 10 C (Ex 3: pH 4.5); for HPLC purity, same sample analyzed at 40 C: temperature of analysis 40 C
Method: (§3) In addition, HPLC analysis of the products indicated faster degradation when determinations were made at higher temperatures (40 or 25° C. compared to 10 or 15° C.). The purity of the compounds of Ex 4 varied by as much as 20% when the analysis was performed at 25 and 10° C., respectively.
as §2
(§4) f. Instability of the compound of Ex 4 in an aqueous solution as a zwitterion was observed when a recovery of an additional amount of the material from a large freeze-drying flask was attempted. Simple dissolution of a residual material on the walls with DI water followed by freeze-drying has decrease estimated by NMR purity from 95-96% to 87-88%. • g. […] The same sample analyzed at 25 C and 10 C had difference in purity 13-15%, e.g., either 78-80% or 93%.
(§5) Instability of the compound of Ex 5 in an aqueous solution as a zwitterion was observed while doing a purification of an additional amount of the material on C8 silica gel with water/acetonitrile as eluent. • j. The material of the compound of Ex 5 was decomposing faster during HPLC analysis when temperature of the thermostat was higher. The same sample analyzed at 40 C and 15 C had purity 97% or 99%, correspondingly. • k.

[3] = Stability in solution or solid state followed by NMR; assay type: physicochemical
Method: as §3, §1, §4, §5

platelet aggregation [4] = test: Whole blood clotting time by capillary tube method in human volunteers; assay type: in vivo; details: for Max % Increase in clotting time: versus time zero
Method: A Test Method was developed to determine clotting time to evaluate the anti, platelet aggregation effect of O-acetyl-L-Tyrosine (OAT) by employing capillary tube method in two human volunteers.
1. Dose Strength: Volunteer 1 (90 Kg) 1000 mg, Volunteer 2 (60 Kg) 350 mg of OAT
3. Route of Administration: Single exposure by […]. 4. Blank Control Self, time zero clotting time
600 mg of O-Acetyl-L-Serine-O-Acetyl-L-Tyrouine was administered to a single human volunteer who weighs 136 lbs and is […]. The procedure was conducted using the protocol of Example 2, except the drug administered was O-Acetyl-L-Serine-O-Acetyl-L-Tyrosine. The results are depicted in FIG. 3.

platelet aggregation [5] = test: Clotting time by capillary tube method in Swiss Albino rats (anti platelet aggregation effect); assay type: in vivo; details: for Clotting time: OAS study, 2 hours post dosing, HCl salt; for Clotting time / Clotting time in minutes, After 4 hrs of administration / Clotting time in minutes, After 24 hrs of administration: single oral gavage; for Significance of clotting times at all dose levels and between the dose levels (FIG. 1): rats, 10-100 mg/kg, average of 5 rats, P<0.5 [sic]; for Clotting time in minutes, After 4 hrs of administration / Clotting time in minutes, After 24 hrs of administration: OAT study
Method: A Test Method was developed to determine clotting time to evaluate the anti platelet aggregation effect of O-acetyl-L-Serine HCl salt (OAS), and O-acetyl-L-Tyrosine (OAT) by employing a capillary tube method using Swiss Albino Rats as the test system.
Young 5-6 weeks old Swiss Albino rats weighing about 200 Gm were used in the following protocol. They were obtained from an established animal supplier.
1. Dose Strength: 10, 20, 50 and 100 mg/kg of OAS and OAT
3. Route of Administration: Single exposure by oral gavage. 4. No. of animals per group: 5
Experimental procedure: The rats were fasted for 18-20 hours before dosing. A Syringe attached to a 16 gauge blunt tipped canula was used for this purpose. Two hours after dosing, the animals were provided with feed. 24 hours (±10 minutes) after the administration of the drug, blood samples were collected (0.2 ml approx) in capillary tubes. Animals were anaesthetized by mild ether inhalation by keeping a cotton swab soaked in ether near the nostrils of the animal. Blood was collected from the orbital sinus onto the capillary tube. […] For the confirmation of clotting, clotting as checked 30 seconds after the last observed clotting. An increase in clotting time compared to vehicle is an index of inhibition of platelet aggregation.
[…] With OAS, only one clotting time measurement, at 2 hours post dosing, was performed.
In FIG. 1, the clotting time in minutes was plotted against Log of the dose in mg/kg, each point being an average of clotting time obtained in 5 rats. A value of zero was assigned to vehicle control (zero dose). […] (AceTyro=O-Acetyl-L-Tyrosine and AceSer=O-Acetyl-L-Serine HCl).

[6] = 8% acetonitrile/92% aqueous 0.05 mol buffer of KH2PO4 (pH 5)
[7] = single human volunteer, 136 lbs, 600 mg
[8] = Group-2, individual rats, likely 10 mg/kg
[9] = Group-3, individual rats, likely 20 mg/kg
[10] = Group-4, individual rats, likely 50 mg/kg
[11] = Group-5, individual rats, likely 100 mg/kg

CC(=O)OC[C@H](NC(=O)[C@@H](N)COC(C)=O)C(=O)O [Ex 3, O-acetyl-(L)-serine-O-acetyl-(L)-serine] (H-Ser(Ac)-Ser(Ac)-OH)
Hygroscopicity of salts ([1]; salts with HCl, MeSO3H and tartaric acid): hygroscopic
Stability of the salt with tartaric acid on attempted recrystallization ([1]; water/acetonitrile, produced the zwitterion): unstable

CC(=O)OCC(NC(=O)[C@@H](N)COC(C)=O)C(=O)O (stereo partly shown) [Ex 3, O-acetyl-(L)-serine-O-acetyl-(L)-serine] (H-Ser(Ac)-[ξS](Ac)-OH)
HPLC purity after 5 days after dissolution [2, 6]: 95.7%
HPLC purity in solution before storage [2, 6]: 97.3%
HPLC purity, same sample analyzed at 10 C [2]: 99.4%
HPLC purity, same sample analyzed at 40 C [2]: 97.3%
Stability in an aqueous solution as a salt of tartaric acid ([1]; compared with D2O/DCl sample): much greater
By-product on recrystallization from aqueous 40% EtOH ([1]; zwitterion, heating at 70 C for approximately 20 minutes, mother liquor): Significant accumulation of the O, N-acetyl shift's by-product
Stability in solutions during isolation, purification and analyses (qualitative) [3]: Certain instability
NMR purity of the fresh prepared sample ([3]; D2O with 1 drop of DCl): about 95%
NMR sample after 4 days at room temperature ([3]; D2O with 1 drop of DCl, three sets of signals found): severe decomposition

CC(=O)OC[C@H](N)C(=O)N[C@H](C(=O)O)[C@@H](C)OC(C)=O [Ex 4, O-acetyl-(L)-serine-O-acetyl-(L)-threonine] (H-Ser(Ac)-Thr(Ac)-OH)
Variation of purity between HPLC analysis at 25 and 10° C. [2]: ≤ 20%
Difference in HPLC purity between analysis at 25 C and 10 C ([2]; same sample): 13-15%
HPLC purity, same sample analyzed at 10 C [2]: 93%
HPLC purity, same sample analyzed at 25 C ([2]; temperature of analysis 25 C): 78-80%
Stability in solutions during isolation, purification and analyses (qualitative) [3]: greatest instability in the whole series
Purity estimated by NMR before re-dissolution ([3]; zwitterion): 95-96%
Purity estimated by NMR after dissolution with DI water followed by freeze-drying ([3]; zwitterion, aqueous solution): 87-88%

CC(=O)OC[C@H](N)C(=O)NC(Cc1ccc(OC(C)=O)cc1)C(=O)O (stereo partly shown) [Ex 5, O-acetyl-(L)-serine-O-acetyl-(L)-tyrosine] (H-Ser(Ac)-[ξY](Ac)-OH)
HPLC purity, same sample analyzed at 15 C ([2]; temperature of analysis 15 C): 99%
HPLC purity, same sample analyzed at 40 C [2]: 97%
Stability in solutions during isolation, purification and analyses (qualitative) [3]: comparable stability of relative to Compound F
O, N-shift by-product formed after 26 hours ([3]; D2O solution (NMR sample)): about 3.4%
Decomposition in a solid state after 5 days of storage at 25 C ([3]; batch B, freshly dissolved material, NMR): a trace of the signal at 3.7 ppm (CH2OH group) was observed
O, N-shift impurity after 5 days ([3]; same NMR sample in D2O): 4.7%
Anti platelet activity (blood clotting time, FIG. 3) (platelet aggregation [4]; [7]): significant anti platelet activity
Period of significant anti platelet activity (platelet aggregation [4]; [7]): 200 h

CC(=O)OC[C@H](N)C(=O)O.Cl [OAS, O-acetyl-L-Serine HCl salt]
Clotting time (platelet aggregation [5]; [8]): 6 minutes (2×) and 8 minutes and 9 minutes (2×)
Clotting time (platelet aggregation [5]; [9]): 9 minutes (3×) and 8 minutes (2×)
Clotting time (platelet aggregation [5]; [10]): 19 min and 20 min and 16 min and 17 min and 15 min
Clotting time (platelet aggregation [5]; [11]): 26 minutes (2×) and 22 minutes and 30 minutes and 29 minutes
Significance of clotting times at all dose levels and between the dose levels (FIG. 1) (platelet aggregation [5]): statistically significant

CC(=O)Oc1ccc(C[C@H](N)C(=O)O)cc1 [OAT, O-acetyl-L-Tyrosine]
Clotting time in minutes, After 4 hrs of administration (platelet aggregation [5]; Group-2, individual rats, group dose not given (doses 10, 20, 50, 100 mg/kg)): 8 minutes (2×) and 9 minutes (2×) and 10 minutes
Clotting time in minutes, After 24 hrs of administration (platelet aggregation [5]; [8]): 8 minutes (2×) and 9 minutes (2×) and 7 minutes
Clotting time in minutes, After 4 hrs of administration (platelet aggregation [5]; [9]): 9 minutes (2×) and 10 minutes (2×) and 15 minutes
Clotting time in minutes, After 24 hrs of administration (platelet aggregation [5]; [9]): 9 minutes and 10 minutes (2×) and 8 minutes and 11 minutes
Clotting time in minutes, After 4 hrs of administration (platelet aggregation [5]; [10]): 18 minutes and 19 minutes (2×) and 17 minutes (2×)
Clotting time in minutes, After 24 hrs of administration (platelet aggregation [5]; [10]): 14 minutes (3×) and 16 minutes (2×)
Clotting time in minutes, After 4 hrs of administration (platelet aggregation [5]; [11]): 21 minutes (2×) and 26 minutes and 29 minutes and 25 minutes
Clotting time in minutes, After 24 hrs of administration (platelet aggregation [5]; [11]): 19 min and 23 min and 22 min and 25 min and 24 min
Significance of clotting times at all dose levels and between the dose levels (FIG. 1) (platelet aggregation [5]): statistically significant
Whole blood clotting time (platelet aggregation [4]; Vol 1 (90 Kg), 1000 mg once, Time 8): 6.5 min
Whole blood clotting time (platelet aggregation [4]; Vol 1 (90 Kg), 1000 mg once, Time 12): 8.5 min
Whole blood clotting time (platelet aggregation [4]; Vol 1 (90 Kg), 1000 mg once, Time 24): 8 min
Whole blood clotting time (platelet aggregation [4]; Vol 1 (90 Kg), 1000 mg once, Time 48): 7.5 min
Sustained Increase % in clotting time (platelet aggregation [4]; Vol 1, 1000 mg, at 48 hours after initial dose, listed as O-Acetyl Tyrosine): 25%
Max % Increase in clotting time (platelet aggregation [4]; Vol 1, 1000 mg): 42%
Whole blood clotting time (platelet aggregation [4]; Vol 2 (60 Kg), 350 mg once, Time 2): 5.5 min
Whole blood clotting time (platelet aggregation [4]; Vol 2 (60 Kg), 350 mg once, Time 5): 6 min
Whole blood clotting time (platelet aggregation [4]; Vol 2 (60 Kg), 350 mg once, Time 11): 6.75 min
Whole blood clotting time (platelet aggregation [4]; Vol 2 (60 Kg), 350 mg once, Time 22.5): 6.5 min
Sustained Increase % in clotting time (platelet aggregation [4]; Vol 2, 350 mg, last time point): 18%
Max % Increase in clotting time (platelet aggregation [4]; Vol 2, 350 mg, listed as O-Acetyl Tyrosine): 23%
Time for which increase in clotting time was sustained (platelet aggregation [4]; Volunteer 1, 1000 mg): at least 48 hours
Dose dependence of increase in clotting time (platelet aggregation [4]; two human volunteers, 1000 mg and 350 mg): dose dependent increase in clotting time
Side effects or toxic reactions reported by volunteers (platelet aggregation [4]; two human volunteers, single dose 1000 mg or 350 mg): Neither volunteer reported any unusual side effects or toxic reactions
